# Article PMC8437281 (PLoS ONE, 2021)
# “And” between values parts separate entries of the source, which are not always exact repeats. Equal values may be shown once. Read-outs that look alike come from different tables or passages of the source. Where no end group is shown, it is not given here.
# Tests used:
# [1] = system: C. difficile 630; experiment: microbe, parasite or virus in culture; conditions: Clostridioides difficile, 630, 24 h
# [2] = system: C. difficile 630; conditions: C. difficile 630, BHI broth, 24 h, 37°C, anaerobic, OD 600 nm; triplicate
# [3] = system: C. difficile 630; conditions: lowest concentration killing ≥99.9%, after 24 h incubation plated on BHI agar, 37°C, anaerobic, triplicate
# [4] = system: Caco-2 cells
Molecule,MIC [1],MIC [2] [µM],Minimum bactericidal concentration (MBC) [3] [µM],Reduction of viability of Caco-2 cells ([4]; Caco-2) [%],"Viability of Caco-2 cells ([4]; Caco-2, 33.94 µM) [%]"
CN[C@H](CC(C)C)C(=O)N[C@H]1C(=O)N[C@@H](CC(N)=O)C(=O)N[C@H]2C(=O)N[C@H]3C(=O)N[C@H](C(=O)N[C@H](C(=O)O)c4cc(O)cc(O)c4-c4cc3ccc4O)[C@H](O)c3ccc(c(Cl)c3)Oc3cc2cc(c3O[C@@H]2O[C@H](CO)[C@@H](O)[C@H](O)[C@H]2O[C@H]2C[C@](C)(N)[C@H](O)[C@H](C)O2)Oc2ccc(cc2Cl)[C@H]1O [Vancomycin],0.488 µg/mL and 0.34 µM,–,–,–,–
KWKLFKKIGAVLKVL-NH2 [CM],–,2.21,2.21,–,–
KWKLFKKIGAVLKVLA-NH2 [CM-A],–,1.06,4.24,11,40
